# According to patent US6596762B2, “Antioxidant compositions and use for treatment of hepatic steatosis and steatohepatitis” (The Regents of The University of Colorado, priority 2001, dated 2003):
# Legend:
# [1] = system: fat-laden hepatocytes from obese Zucker (fa/fa) rats; assay: Apoptosis by DAPI fluorescence microscopy of isolated hepatocytes exposed to GCDC; assay type: cell-based, rat; conditions: fat-laden cells, 100 μM GCDC × 3 hours
# Protocol: (§1) Briefly, 8-week-old obese Zucker (fa/fa) rats (Zucker rat model of hepatic steatosis) and lean (Fa/?) litter-mates were sacrificed. Liver blood tests and liver histology were obtained, and hepatocytes isolated by the recirculating collagenase perfusion technique. Initial trypan blue exclusion exceeded 94%. Cells were incubated in suspension with glycochenodeoxycholic acid (GCDC) (0,-1000 μM) in Krebs-Ringer-HEPES for 4 hours. Aliquots of cells were removed hourly for determination of: (1) hydroperoxide generation measured by fluorescence of dichlorofluororescin diacetate (DCF-DA) that was preloaded into hepatocytes; (2) %LDH release as a measure of cell necrosis; and (3) DAPI fluorescence microscopy of fixed cells to quantify apoptosis. Liver histology was quantitated using a grading system.
# [2] = system: lean hepatocytes from lean (Fa/?) Zucker litter-mates; assay: as above; assay type: cell-based, rat; conditions: lean cells, 100 μM GCDC × 3 hours
# Protocol: as §1
# [3] = system: fat-laden hepatocytes from obese Zucker (fa/fa) rats; assay: Cell necrosis (%LDH release) of isolated hepatocytes exposed to GCDC; assay type: cell-based, rat; conditions: fat-laden cells, 100 μM GCDC × 3 hours
# Protocol: as §1
# [4] = system: lean hepatocytes from lean (Fa/?) Zucker litter-mates; assay: as above; assay type: cell-based, rat; conditions: lean cells, 100 μM GCDC × 3 hours
# Protocol: as §1
# [5] = system: fat-laden hepatocytes from obese Zucker (fa/fa) rats; assay: Hydroperoxide generation (DCF-DA fluorescence) in isolated hepatocytes exposed to GCDC; assay type: cell-based, rat; conditions: fat-laden cells exposed to GCDC, compared with lean cells
# Protocol: as §1
# [6] = system: fat-laden hepatocytes; assay: Protection of fat-laden liver cells exposed to bile acids; assay type: cell-based, rat; conditions: fat-laden liver cells exposed to relatively low concentrations of bile acids
# Source text: The antioxidants in this mixture were chosen for the following scientific reasons. […] Briefly, fat-laden hepatocytes were isolated from the Zucker rat model of hepatic steatosis and from lean littermate Zucker rats. […] Without being bound by theory, the present inventor believes that the fatty liver is more prone to hepatocyte necrosis and thus is at risk for severe injury from minor and major insults. […] Studies from the present inventor's laboratory have shown that the effect of vitamin E is probably mediated through reduction of free radical production from mitochondria (Yerushalmi et al., Hepatology 2001; 33:616-26, incorporated herein by reference in its entirety).
# [7] = system: children with NASH; conditions: oral vitamin E 400 to 1200 IU per day, during therapy; cited from earlier work
# [8] = system: isolated human liver mitochondria; assay: Protection of isolated liver mitochondria against toxic bile acids
# Source text: (§2) Beta carotene and other carotenoids also function as antioxidants in tissues with low oxygen content (such as the liver) and the present inventor has shown beta carotene to have a protective role in hepatic mitochondria that prevents processes that generate oxygen free radicals (unpublished data). […] (Sokol et al., Hepatology 2001;34(2):277A, incorporated herein by reference in its entirety).
# [9] = system: isolated rat liver mitochondria; assay: as above
# Source text: as §2
compound,measurement,setting,value
"CC(CCC(=O)NCC(=O)O)C1CCC2C3C(O)CC4CC(O)CCC4(C)C3CCC12C (centres unmarked) [GCDC, glycochenodeoxycholic acid]",apoptosis,[1],8%
same,apoptosis,[2],31%
same,necrosis (%LDH release),[3],54%
same,necrosis (%LDH release),[4],24%
same,generation of hydroperoxides,[5],trend was present towards increased generation of hydroperoxides
Cc1c(C)c2c(c(C)c1O)CC[C@@](C)(CCC[C@H](C)CCC[C@H](C)CCCC(C)C)O2 [alpha tocopherol],oxidative stress and hepatocyte cell death,[6],will prevent oxidative stress and hepatocyte cell death
same,serum AST and ALT,[7],reduced
CC1=C(/C=C/C(C)=C/C=C/C(C)=C/C=C/C=C(C)/C=C/C=C(C)/C=C/C2=C(C)CCCC2(C)C)C(C)(C)CCC1 [beta carotene],mitochondrial swelling and injury induced by toxic bile acids,[8],protects the mitochondria from swelling and injury
same,production of free radicals,[8]; toxic bile acids,markedly diminishes the production of free radicals
same,mitochondrial swelling and injury induced by toxic bile acids,[9],protects the mitochondria from swelling and injury
same,production of free radicals,[9]; toxic bile acids,markedly diminishes the production of free radicals
